{"source": "patent US8350049B2", "about": "“Immobilized 1,2-benzisothiazolin-3-one” (priority 2006, dated 2013)", "key": {"Escherichia coli [1]": {"tested_on": "Escherichia coli", "assay": "JIS Z2801:2000 (E) test, water-based interior flat paint", "assay_type": "cell-based", "details": "contact time 8 hrs; active conc. 0.05%", "description": "The activity of the immobilized BIT/ZnO complex from Example 9 as a dry-film bactericide against Escherichia coli was determined in ICI UK, Diamond Matt is paint, a commercially available water-based interior flat paint (40% acrylic binder) according to the JIS Z2801:2000 (E) test (Japanese Industrial Standard Z2801:2000 (E) test, Antimicrobial products—Test for antimicrobial activity and efficacy).\n(§1) The complex was coated on to Leneta Scrub Resistance test panels, with a dry film thickness of 200 micrometers, with a foam roller allowing a drying time of 18 hours between coats. The panels were equilibrated in the dark for 7 days. Subsamples were cut (each 50 mm×50 mm). The samples were inoculated with a suspension of the test bacteria and then incubated in chambers (1 per species) at 20° C. and 65% relative humidity.\nSwabs were employed for recovery of the bacteria. From the blank sample 1.8×10^5 cfu/cm^2 were recovered. This number was taken as the starting bacterial load on the surface."}, "[2]": {"tested_on": "Pseudomonas aeruginosa DSM 939", "assay": "JIS Z2801:2000 (E) test, water-based interior flat paint", "assay_type": "cell-based", "details": "contact time 8 hrs; active conc. 0.05%", "description": "as §1\nThe activity of the immobilized BIT/ZnO complex from Example 8 as a dry-film bactericide against Pseudomonas aeruginosa DSM 939 was determined in ICI UK, Diamond Matt paint, a commercially available water-based interior flat paint (40% acrylic binder) according to the JIS Z2801:2000 (E) test. The microbiological test was performed according to the procedure described in Example 16."}, "[3]": {"tested_on": "Pseudomonas aeruginosa DSM 939", "assay": "JIS Z2801 test, interior acrylic wall paint of example 15", "assay_type": "cell-based", "details": "contact time 8 hrs; active conc. 0.05%", "description": "as §1\n(§2) The activity of the immobilized BIT/ZnO complex from Example 8 as a dry-film bactericide against Pseudomonas aeruginosa DSM 939 was determined in the paint described in example 15 according to the JIS Z2801 test. The microbiological test was performed according to the procedure described in to Example 16."}, "[4]": {"tested_on": "Pseudomonas aeruginosa DSM 939", "assay": "JIS Z2801 test after 24 h water leaching (severe environmental conditions), paint of example 15", "assay_type": "cell-based", "details": "specimens leached in water 24 hours; contact time 24 hrs; active conc. 0.05%", "description": "as §1\nas §2, with “bactericide after aging” for “bactericide”, “in” for “in to”, “16. After equilibration, the specimens were leached in water (24 hours) to simulate use conditions in a severe environment. The paint film was cleaned by water jet.” for “16.”"}, "Escherichia coli [5]": {"tested_on": "Escherichia coli", "assay": "JIS Z2801 test after 24 h water leaching (severe environmental conditions), interior flat paint", "assay_type": "cell-based", "details": "specimens leached in water 24 hours; contact time 24 hrs; active conc. 0.05%", "description": "as §1\nThe activity of the immobilized BIT/ZnO complex from Example 8 as a dry-film bactericide after artificial aging against Escherichia coli was determined in ICI UK, Diamond Matt paint, a commercially available water-based interior flat paint (40% acrylic binder) according to the JIS Z2801 test. The paint specimens were prepared as described in example 19. The microbiological test was performed according to the procedure described in Example 16. After equilibration, the specimens were leached in water (24 hours) to simulate use conditions in a severe environment. The paint film was cleaned by water jet."}, "[6]": {"tested_on": "Pseudomonas aeruginosa DSM 939", "assay": "Dry-film bactericide test, modified Swiss Standard SNV195120, water-based interior flat paint", "assay_type": "cell-based", "description": "The activity of the immobilized BIT/ZnO complex from Example 8 as a dry-film bactericide against Pseudomonas aeruginosa DSM 939 was determined in an ICI UK, Diamond Matt paint, a commercially available water-based interior flat paint (40% acrylic binder) according to the modified Swiss Standard SNV195120, which is described below\nThe immobilized BIT/ZnO complex from example 8 was incorporated into the water-based interior flat paint at the levels shown in the Table below. The paints were allowed to equilibrate for one week at room temperature.\nA quantity of 50 mg of the BIT/ZnO complex was mixed with 100 g of the paint (resulting in 0.05% of the specimen 1 in the table below, the other specimens were prepared accordingly). Round filter papers (5.5 cm diameter) were coated with the test material to a thickness of 150 g/m2 wet and the resulting specimens dried at room temperature.\nOne half of the test specimen was leached by tap water (9 liters per m^2) in a beaker. The specimens were dried at room temperature and sterilized by gamma radiation from a cobalt 60 source (25 kGy). In the microbiological test, Pseudomonas aeruginosa DSM 939 was used as the bacteria source.\nLiquid cultures of each bacterial strain were incubated over night at appropriate temperatures and then diluted 1:100,000 to result in a count of 10^4 cfu per ml. […]"}, "[7]": {"tested_on": "Pseudomonas aeruginosa DSM 939", "assay": "Dry-film bactericide test, modified Swiss Standard SNV195120, water-based interior eggshell paint", "assay_type": "cell-based", "design": "key: 0H: No bacterial growth under the specimen, inhibition zone on the nutrient.; 0: No growth of bacteria under the specimen.; Growth of bacteria under the specimen", "description": "The activity of the immobilized BIT/ZnO complex from Example 8 as a dry-film bactericide against Pseudomonas aeruginosa DSM 939 was determined in a commercially available water-based interior eggshell paint (40% acrylic binder with an adhesion promoter) according to the modified Swiss Standard SNV195120. The composition of the paint, which is typically applied in wet rooms, is set out below.\nThe microbiological test was performed according to the procedure described in Example 14."}, "[8]": {"details": "ambient temperature; cited from earlier work"}}}
{"compound": "Zinc Pyrithione [ZPT]", "values": [{"measurement": "Kill rate % related to blank paint", "setting": "Escherichia coli [1]", "value": 96.4, "unit": "%"}, {"measurement": "Log (Cfu/cm^2)", "setting": "Escherichia coli [1]", "value": "3.76 Log (Cfu/cm^2)"}, {"measurement": "Kill rate % related to blank paint", "setting": "[2]", "value": 69.40, "unit": "%"}, {"measurement": "Log (Cfu/cm^2)", "setting": "[2]", "value": "4.18 Log (Cfu/cm^2)"}, {"measurement": "Kill rate % related to blank paint", "setting": "[3]", "value": 39.5, "unit": "%"}, {"measurement": "Log (Cfu/cm^2)", "setting": "[3]", "value": "4.66 Log (Cfu/cm^2)"}, {"measurement": "Kill rate % related to blank paint", "setting": "[4]", "value": 85.5, "unit": "%"}, {"measurement": "Log (Cfu/cm^2)", "setting": "[4]", "value": "3.04 Log (Cfu/cm^2)"}, {"measurement": "Kill rate % related to blank paint", "setting": "Escherichia coli [5]", "value": 20, "unit": "%"}, {"measurement": "Log (Cfu/cm^2)", "setting": "Escherichia coli [5]", "value": "3.04 Log (Cfu/cm^2)"}]}
{"compound": "CN(C)C(=S)SSC(=S)N(C)C", "note": "[Thiram, tetramethylthiuram disulfide]", "values": [{"measurement": "Psa unleached", "setting": "[6]; active conc. 0.1%", "value": 0}, {"measurement": "Psa unleached", "setting": "[6]; active conc. 0.2%", "value": 0}, {"measurement": "Psa unleached", "setting": "[7]; active conc. 0.1%", "value": "G"}, {"measurement": "Psa leached 24 h", "setting": "[7]; active conc. 0.1%", "value": "G"}, {"measurement": "Psa unleached", "setting": "[7]; active conc. 0.2%", "value": "G"}, {"measurement": "Psa leached 24 h", "setting": "[7]; active conc. 0.2%", "value": "G"}]}
{"compound": "O=c1[nH]sc2ccccc12", "note": "[BIT, 1,2-benzisothiazolin-3-one]", "values": [{"measurement": "solubility of BIT in methanol", "setting": "[8]", "value": "greater than 5%"}]}
